Our source for the Ki, EC50 and CC50 values is ChEMBL document CHEMBL1132854, “Structure-based design of ketone-containing, tripeptidyl human rhinovirus 3C protease inhibitors” (Bioorg Med Chem Lett, 2000).

The test system of test [1] is Human rhinovirus sp. Put plainly: Compound was evaluated for the inhibition of human rhinovirus 3C protease (3CP); No inhibition. It counts as functional, organism-based.
Test [2] has as its system Human rhinovirus sp. The experiment in a line: Compound was evaluated for in vitro effective concentration against HRV serotype-14 (HRV-14). Format: functional, organism-based.
For test [3], the system named is Human rhinovirus sp. The experiment in a line: Compound was evaluated for in vitro cytotoxic concentration against HRV serotype-14 (HRV-14). It counts as functional.
For test [4], the system named is Human rhinovirus sp. Put plainly: Compound was evaluated for the inhibition of human rhinovirus 3C protease (3CP). It counts as functional, organism-based.
For test [5], the system named is Human rhinovirus sp. The experiment in a line: Compound was evaluated for in vitro cytotoxic concentration against HRV serotype-14 (HRV-10). Format: functional.
The test system of test [6] is Human rhinovirus sp. Put plainly: Compound was evaluated for in vitro effective concentration against HRV serotype-14 (HRV-1A). It counts as functional, organism-based.
In test [7] the test system is Human rhinovirus sp. Put plainly: Compound was evaluated for in vitro cytotoxic concentration against HRV serotype-14 (HRV-1A). It counts as functional.
Test [8] relates to Human rhinovirus sp. Put plainly: Compound was evaluated for in vitro effective concentration against HRV serotype-14 (HRV-10). It counts as functional, organism-based.

SMILES strings stand for the structures. Square brackets hold non-standard residues; d marks the D form. Peptide text beside a SMILES is read from it. * marks the point of attachment. Cbz = O=C(OCc1ccccc1)*; Dap = NC[C@H](N)C(=O)O

On to `CC(C)C[C@H](NC(=O)OCc1ccccc1)C(=O)N[C@@H](Cc1ccccc1)C(=O)N[C@@H](CCC(N)=O)C(O)c1nc2ccccc2s1` (stereo partly specified), for which the Ki entry with Human rhinovirus sp. [1] is listed as “Not Active”. In addition, in the test with Human rhinovirus sp. [2], the EC50 worked out at 32 µM. The same compound displayed a CC50 in the test on Human rhinovirus sp. [3] of 80 µM.

Take `CC(C)C[C@H](NC(=O)OCc1ccccc1)C(=O)N[C@@H](Cc1ccccc1)C(=O)N[C@@H](C[C@@H]1CCNC1=O)C(=O)c1cc2ccccc2s1`: the affinity with Human rhinovirus sp. [4], expressed as Ki, was 4.7 µM. This compound also gave an EC50 with Human rhinovirus sp. [2] of over 10 µM. This compound displayed a CC50 with Human rhinovirus sp. [3] of over 10 µM.

In the test with Human rhinovirus sp. [4], `Cc1cc(C(=O)N[C@H](C(=O)N[C@@H](Cc2ccc(F)cc2)C(=O)N[C@@H](C[C@@H]2CCNC2=O)C(=O)c2nc3ccccc3s2)C(C)C)no1` came in with a Ki of 0.0045 µM. In addition, the CC50 with Human rhinovirus sp. [5], in the test on Human rhinovirus sp. [3] and with Human rhinovirus sp. [7] was 250 µM each time. Moreover, the half-maximal effective concentration (EC50) was 0.34 µM in the test on Human rhinovirus sp. [6], 0.34 µM with Human rhinovirus sp. [2] and 0.25 µM in the test on Human rhinovirus sp. [8].

For `CC(C)C[C@H](NC(=O)OCc1ccccc1)C(=O)N[C@@H](Cc1ccccc1)C(=O)N[C@@H](C[C@@H]1CCNC1=O)C(O)c1nc2ccccc2s1` (stereo partly specified), the Ki in the test on Human rhinovirus sp. [4] is 34 µM. The EC50 in the test on Human rhinovirus sp. [2] was 7.9 µM. Further, the cytotoxic concentration (CC50) in the test with Human rhinovirus sp. [3] came out at 63 µM.

With `CC(C)C[C@H](NC(=O)OCc1ccccc1)C(=O)N[C@@H](Cc1ccccc1)C(=O)N[C@@H](C[C@@H]1CCNC1=O)C(=O)c1ccccc1`, the inhibitory constant (Ki) in the test on Human rhinovirus sp. [4] turned out to be 3.2 µM. In the test on Human rhinovirus sp. [2], this compound had a 50% effective concentration (EC50) of over 10 µM. Moreover, the CC50 in the test on Human rhinovirus sp. [3] is over 10 µM.

As for `CC(=O)NC[C@H](NC(=O)[C@H](Cc1ccccc1)NC(=O)[C@H](CC(C)C)NC(=O)OCc1ccccc1)C(=O)c1nc2ccccc2s1`, the affinity with Human rhinovirus sp. [4] corresponds to a Ki of 1.7 µM. The EC50 in the test on Human rhinovirus sp. [2] was over 25 µM. In the test with Human rhinovirus sp. [3], this compound came in with a 50% cytotoxic concentration (CC50) of 25 µM.

In turn, `CC(C)C[C@H](NC(=O)OCc1ccccc1)C(=O)N[C@@H](Cc1ccccc1)C(=O)N[C@@H](CCC(N)=O)C(=O)c1nc2ccccc2s1` gave a Ki with Human rhinovirus sp. [4] of 3.5 µM. Besides, the response in the test with Human rhinovirus sp. [2] was half-maximal at 17 µM (EC50). Further, the 50% cytotoxic concentration (CC50) with Human rhinovirus sp. [3] was over 100 µM.

Compound `CC(C)C[C@H](NC(=O)OCc1ccccc1)C(=O)N[C@@H](Cc1ccccc1)C(=O)N[C@@H](C[C@@H]1CCNC1=O)C(=O)c1nccs1` came in with a Ki with Human rhinovirus sp. [4] of 0.7 µM. For the same compound, the midpoint of the response in the test with Human rhinovirus sp. [2], the EC50, lay at 7.9 µM. The half-maximal cytotoxic concentration (CC50) with Human rhinovirus sp. [3] turned out to be 240 µM.

Regarding `CC(C)C[C@H](NC(=O)OCc1ccccc1)C(=O)N[C@@H](Cc1ccccc1)C(=O)N[C@@H](C[C@@H]1CCNC1=O)C(=O)c1ccccn1`, in the test on Human rhinovirus sp. [4], the Ki is 0.17 µM. The same compound had a concentration for a half-maximal effect (EC50) in the test with Human rhinovirus sp. [2] of 4 µM. This compound also came in with a cytotoxic concentration (CC50) in the test with Human rhinovirus sp. [3] of 200 µM.

On to `CC(C)CC(NC(=O)OCc1ccccc1)C(=O)N[C@@H](Cc1ccccc1)C(=O)NC(CC1CCNC1=O)C(=O)c1nc2ccccc2s1` (stereo partly specified), for which the Ki in the test with Human rhinovirus sp. [4] came out at 0.065 µM. The compound also came in with an EC50 in the test on Human rhinovirus sp. [2] of 3.2 µM. For the same compound, the half-maximal cytotoxic concentration (CC50) with Human rhinovirus sp. [3] was over 320 µM.

The compound `CC(=O)NC[C@@H](C=O)NC(=O)[C@H](Cc1ccccc1)NC(=O)[C@H](CC(C)C)NC(=O)OCc1ccccc1` (Cbz-Leu-Phe-[Dap](Ac)-aldehyde) gave a Ki with Human rhinovirus sp. [4] of 0.006 µM. Also, the concentration for a half-maximal effect (EC50) in the test with Human rhinovirus sp. [2] amounted to 2.4 µM.
